From ChEMBL document CHEMBL2057075, “Guanacastane-type diterpenoids with cytotoxic activity from Coprinus plicatilis” (Bioorg Med Chem Lett, 2012) come the findings set out here.

Assay [1] deals with HepG2. As to the kind of experiment: Growth inhibition of human HepG2 cells at 20 uM after 72 hrs by MTT assay. Type of assay: functional, cell-based.
Assay [2] deals with HepG2. Briefly: cells. Conditions: Homo sapiens, HepG2, 72 h.
Description: Cytotoxicity against human HepG2 cells after 72 hrs by MTT assay
In assay [3] the test system is U2OS. As to the kind of experiment: Cytotoxicity against human U2OS cells after 72 hrs by MTT assay. The assay is classed as functional, cell-based. (Formazan colour is commonly taken as a measure of viable cells.)
The subject of assay [4] is MDA-MB-231. As to the kind of experiment: cells. Conditions: Homo sapiens, MDA-MB-231, 72 h.
Description: Cytotoxicity against human MDA-MB-231 cells after 72 hrs by MTT assay
The subject of assay [5] is HCT-116. As to the kind of experiment: cells. Particulars: Homo sapiens, HCT-116, 72 h.
For assay [6], the system named is HeLa. As to the kind of experiment: cells. Particulars: Homo sapiens, 72 h.
Description: Cytotoxicity against human HeLa cells after 72 hrs by MTT assay
Assay [7] relates to BGC-823. As to the kind of experiment: Cytotoxicity against human BGC823 cells after 72 hrs by MTT assay. Type of assay: functional, cell-based. Conditions: BGC-823, 72 h.

Activity calls are given as the source filed them. The rule behind the calls is not given here. Where only a bound is given, the exact number is not on record here.

Regarding `CC(C)[C@H]1[C@@H](O)[C@H](O)C2=CC3=C(CO)CCC[C@@]3(C)CC[C@@]21C` (relative stereo), the “growth inhibition (GI)” value in assay [1] is “inactive”.

Broadly, the IC50 is the point on the concentration scale where inhibition reaches its midpoint. A lower IC50 goes with greater potency. As to `CC(C)[C@H]1[C@@H](O)C(=O)[C@@]2(O)[C@H]3OCC4=C3[C@@](C)(CC[C@@H]4O)CC[C@]12C` (relative stereo), the “growth inhibition (GI)” value in assay [1] is “Active”. In addition, the concentration for half-maximal inhibition (IC50) in assay [2] was 16.9 µM; in assay [3] it was 39.7 µM; in assay [4] it was 34.8 µM; in assay [5], 19.8 µM; in assay [6], above 50 µM; in assay [7], 35.6 µM.

`CC(=O)O[C@H]1C(=O)[C@@H]2[C@H]3OCC4=C3[C@@](C)(CC[C@@H]4O)CC[C@]2(C)[C@H]1C(C)C`: the “growth inhibition (GI)” value in assay [1] is “inactive”.

`CC(C)[C@H]1[C@@H](O)[C@@H](O)C2=C3OC(=O)C4=C3[C@@](C)(CC[C@@H]4O)CC[C@@]21C` (relative stereo): the “growth inhibition (GI)” value in assay [1] was “Active”. Further, the IC50 in assay [2] is 2.3 µM; in assay [3] it was 19.3 µM; in assay [4], 6 µM; in assay [5] it was 1.2 µM; in assay [6], 5 µM; in assay [7], 2.4 µM.

As for `COc1cccc2c1C(=O)c1c(O)c3c(c(O)c1C2=O)C[C@@](O)(C(=O)CO)C[C@@H]3O[C@H]1C[C@H](N)[C@H](O)[C@H](C)O1` [DOXORUBICIN], the IC50 in assay [2] came to 0.7 µM; in assay [3], 3.4 µM; in assay [5], 0.3 µM; in assay [6], 0.6 µM; in assay [7] it was 0.9 µM.

Take `CC(C)[C@H]1C(=O)CC2=C(O)C3=C(CO)[C@@H](O)CC[C@@]3(C)CC[C@@]21C` (relative stereo): in assay [1], the “growth inhibition (GI)” value was “Active”. The IC50 was 25.9 µM in assay [2]; above 50 µM in assay [3]; above 50 µM in assay [4]; 38.9 µM in assay [5]; above 50 µM in assay [6]; above 50 µM in assay [7].
